The text below walks through data of PMC10855113, “Opioid Analgesic as a Positive Allosteric Modulator of Acid-Sensing Ion Channels” (International Journal of Molecular Sciences, 2024).

Where two headings read alike, the source gives them in different places. Where a SMILES comes first, the peptide text is derived from it. Bridges are numbered along the chain shown (N, C = ends). Where no end group is shown, it is not given here. [ ]: non-standard residue; d: D form.

The subject of series [1] is ASIC1a and ASIC1a-containing channels. The following applies: cited from earlier work.
The test system of series [2] is ASIC1. The following applies: cited from earlier work.
Series [3] addresses T1, rat ASIC1a (Rattus norvegicus, UniProt P55926).
T1 construct: expressed in transfected cells; host or cells: Xenopus laevis oocytes injected with cRNA from a PCi plasmid
T1 sequence (P55926 1-526): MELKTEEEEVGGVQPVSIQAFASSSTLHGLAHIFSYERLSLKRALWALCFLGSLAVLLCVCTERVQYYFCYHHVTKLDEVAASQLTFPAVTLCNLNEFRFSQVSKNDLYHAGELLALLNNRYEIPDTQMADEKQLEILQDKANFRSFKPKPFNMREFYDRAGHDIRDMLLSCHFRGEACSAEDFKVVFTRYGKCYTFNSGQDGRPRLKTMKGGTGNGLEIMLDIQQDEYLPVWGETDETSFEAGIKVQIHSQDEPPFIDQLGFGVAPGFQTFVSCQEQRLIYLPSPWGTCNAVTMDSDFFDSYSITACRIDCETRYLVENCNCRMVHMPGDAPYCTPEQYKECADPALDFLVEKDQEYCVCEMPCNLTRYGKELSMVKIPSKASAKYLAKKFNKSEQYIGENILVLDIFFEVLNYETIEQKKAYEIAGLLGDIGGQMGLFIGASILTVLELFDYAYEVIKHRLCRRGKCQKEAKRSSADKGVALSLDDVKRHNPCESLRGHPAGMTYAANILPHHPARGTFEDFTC
Description: two-electrode voltage clamp, homomeric rat ASIC1a in X. laevis oocytes. It counts as cell-based. (In general: Two-electrode voltage clamp is typically applied to oocytes expressing channels or transporters.)

Series [4] has as its target T2, rat ASIC3 (Rattus norvegicus, UniProt O35240).
T2 construct: expressed in transfected cells; host or cells: Xenopus laevis oocytes injected with cRNA from a PCi plasmid
T2 sequence (O35240 1-533): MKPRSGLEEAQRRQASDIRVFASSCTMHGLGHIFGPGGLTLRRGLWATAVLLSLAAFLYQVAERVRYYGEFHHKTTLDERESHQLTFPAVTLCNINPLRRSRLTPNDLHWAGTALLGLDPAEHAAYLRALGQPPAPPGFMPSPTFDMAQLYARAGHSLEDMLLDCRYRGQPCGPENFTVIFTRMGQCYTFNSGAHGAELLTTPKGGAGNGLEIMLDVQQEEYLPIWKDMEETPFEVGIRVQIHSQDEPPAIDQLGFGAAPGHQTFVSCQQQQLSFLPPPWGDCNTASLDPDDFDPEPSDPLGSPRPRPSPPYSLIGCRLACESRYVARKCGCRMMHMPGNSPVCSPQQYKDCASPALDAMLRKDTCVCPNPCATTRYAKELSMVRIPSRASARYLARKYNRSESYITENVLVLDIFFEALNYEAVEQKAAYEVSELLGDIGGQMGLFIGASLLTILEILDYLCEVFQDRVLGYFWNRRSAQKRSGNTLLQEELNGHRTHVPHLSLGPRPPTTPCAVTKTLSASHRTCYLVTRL
Description: two-electrode voltage clamp, homomeric rat ASIC3 in X. laevis oocytes. It counts as cell-based.

In series [5] the target is T3, human ASIC3 (Homo sapiens, UniProt Q9UHC3).
T3 construct: expressed in transfected cells; host or cells: Xenopus laevis oocytes injected with cRNA from a pVAX1 plasmid
T3 sequence (Q9UHC3 1-531): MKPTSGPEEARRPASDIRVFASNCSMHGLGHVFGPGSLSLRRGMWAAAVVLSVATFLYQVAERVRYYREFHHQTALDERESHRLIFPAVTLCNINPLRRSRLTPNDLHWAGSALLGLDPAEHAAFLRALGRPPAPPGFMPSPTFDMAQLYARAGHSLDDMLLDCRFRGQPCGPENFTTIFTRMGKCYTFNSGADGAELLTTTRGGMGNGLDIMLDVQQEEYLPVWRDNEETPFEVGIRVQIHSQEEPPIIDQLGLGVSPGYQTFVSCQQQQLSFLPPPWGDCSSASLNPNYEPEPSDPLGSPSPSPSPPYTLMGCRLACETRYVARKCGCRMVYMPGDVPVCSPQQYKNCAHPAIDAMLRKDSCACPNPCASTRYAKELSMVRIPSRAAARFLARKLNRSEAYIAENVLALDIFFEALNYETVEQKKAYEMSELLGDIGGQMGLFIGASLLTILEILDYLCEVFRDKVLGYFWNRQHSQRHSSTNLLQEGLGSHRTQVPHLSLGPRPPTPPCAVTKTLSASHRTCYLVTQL
In words: two-electrode voltage clamp, human ASIC3 in X. laevis oocytes. It counts as cell-based.

The target of series [6] is T2, rat ASIC3. Description: steady-state desensitization (SSD) of rat ASIC3. The following applies: pH 7, without Taf 1.4 ± 0.2%, control = pH drop 7.4 to 5.5, mean ± SEM, n = 5, read-out: integral current at conditioning pH 7.0, % of control. Type of series: cell-based.
For series [7], the target named is T3, human ASIC3. Description: steady-state desensitization of human ASIC3. Type of series: cell-based. The following applies: pH 7.4; 1 mM Taf; without Taf 11 ± 2%; control = pH drop 8.0 to 5.5; mean ± SEM, n = 5; p = 0.005; read-out: total integral current at conditioning pH 7.4, % of control.
Series [8] deals with T1, rat ASIC1a. In words: steady-state desensitization of rat ASIC1a. The following applies: 1 mM Taf; without Taf 9.1 ± 2.5%; stimulus pH 5.5; mean ± SEM, n = 5; p = 0.9; read-out: integral current at conditioning pH 7.0, % of control. Type of series: cell-based.
For series [9] the following is noted: solution for subcutaneous administration; ref manufacturer's website https://sotex.ru/production/catalog/detail.php?ELEMENT_ID=4952; cited from earlier work. An excerpt: Due to the modulating effect of Taf towards ASIC3 in peripheral neurons, the proven analgesic effect of Taf on human may be accompanied by the development of side effects such as pain, mechanical hyperalgesia, inflammatory muscle and joint hyperalgesia, etc., where ASIC3 plays a crucial role. In addition, the significant modulating effect on ASIC1b/3 heteromers (Figure 7) may also have a negative impact on both peripheral acute and acid-induced chronic pain, where the ASIC1b-containing channels also play an important role. Indeed, the recommended dose for subcutaneous a ...

Series [10] has as its target T2, rat ASIC3. Description: cell-based.
Series [11] relates to ASIC3. The following applies: mice; activation of ASIC3; ref [31],[32]; cited from earlier work. An excerpt:
In this study, we have investigated the pharmacological effect of tafalgin (Taf) on ASICs. […] These channels, preferably having a neuronal localization, play an important role in the functioning of CNS and PNS, and are involved in the regulation of synaptic plasticity and learning, the fear perception, and responses to ischemic stroke, multiple sclerosis, and nociception. Positive modulators of ASICs are shown to have ...

In series [12] the test system is ASIC channels. The following applies: cited from earlier work.
For series [13], the system named is ASIC channels. Details: method as in PMID 34721074. The following applies: dual-action ligand; ref [39]; cited from earlier work.
In series [14] the test system is ASIC3. Details: method as in PMID 37918499. The following applies: suppressing morphine-induced microglial activation through ASIC3 inhibition; ref [40]; cited from earlier work.

Regarding dynorphin, in series [1], the “effect on proton-evoked currents” value was “restore the proton-evoked currents”. Besides, the acidosis-induced neuronal death entry in [2] is reported as “increase the acidosis-induced neuronal death”.

What is called EC50 is the concentration at which the effect is half-maximal. On to `C[C@@H](NC(=O)[C@@H](N)Cc1ccc(O)cc1)C(=O)N[C@@H](Cc1ccccc1)C(=O)NCC(N)=O` [Taf, Tyr-D-Ala-Phe-Gly-NH2] (H-Y[dA]FG-NH2), for which the EC50 stood at 1050 ± 270 µM in series [3], 86 ± 24 µM in series [4] and 330 ± 80 µM in [5]. Besides, the “increase in the integral current” value in series [3] (0.3 mM Taf, Vh −50 mV, pH 7.4 to 5.5, mean ± SEM, n = 5, p < 0.001) is listed as 40 ± 5%; in [4] (0.3 mM Taf, Vh −50 mV, pH 5.5 stimulus, isoform screening, mean ± SEM, n = 5, p < 0.001), 115 ± 6%. Further, the “integral current Imax, % of control” value in [3] (pH 7.4 to 5.5, mean ± SEM, n = 10, same as rASIC3 (p = 0.45)) turned out to be 332 ± 103%. Besides, the “increase in the integral current, protocol p.-a.” value in [4] (0.3 mM Taf pre-applied 30 s in resting state, conditioning pH 7.4, stimulus pH 5.5, mean ± SEM, n = 5, p < 0.001) was found to be 116 ± 5%. Also, the “maximum current (Imax), to control” value in series [4] (integral current vs control (pH drop from 7.4 to 5.5), mean ± SEM, n = 9) was 251 ± 15%. Besides, the “Imax (upper asymptote), % of control” value in series [5] (integral current, pH 8.0 to 5.5, mean ± SEM, 5 cells) is listed as 373 ± 28%. Further, in [5] (~9 mM solution vs EC50 on hASIC3), the “recommended subcutaneous dose concentration (~9 mM) over EC50 for human ASIC3” value was “approximately 30 times”. In addition, the remaining activity at 300 µM in [6] (0.3 mM Taf, p = 0.009) was 3.6 ± 0.3%. For the same compound, the remaining activity at 2000 µM in series [6] (2 mM Taf) is 50 ± 3%. Also, the figures for the remaining activity at 1000 µM in [7] and in series [8] were 22 ± 4% and 9.4 ± 2.5%, respectively. Besides, the side effects result in series [9] was “peripheral neuropathy, itching, and pain at the injection site”.

The compound “GTACSCGNSKGIYWFYRPSCPTDRGYTGSCRYFLGTCCTPAD (disulfide 4-37, 6-30, 20-38) [APETx2]” gave a τdes in [10] (100 nM APETx2, control 282 ± 22 ms, mean ± SEM, n = 5, p = 0.2) of 240 ± 22 ms. Further, the “nH of inhibition in the presence of Taf” value in [10] (APETx2 + 0.3 mM Taf, mean ± SEM, 5–6 cells) is on record as 1.11 ± 0.05. The compound further yielded a nH of inhibition in series [10] (APETx2 alone, mean ± SEM, 5–6 cells) of 1.37 ± 0.05. Also, in [10] (APETx2 alone, pH 7.4 to 5.5), the “inhibition of the channel” value is listed as “completely inhibited the channel”.

Regarding `Cc1nc(NC(=N)N)nc2ccccc12` [2-guanidine-4-methylquinazoline], the nocifensive behavior result in [11] was “induce nocifensive behavior in mice”.

Turning to `COc1ccc2c3c1O[C@H]1C(=O)CC[C@@]4(O)[C@@H](C2)N(C)CC[C@]314` [oxycodone], the “effect on ASIC channels” value in series [12] is given as “positive modulating effect”.

Consider `CN1CC[C@]23c4c5ccc(O)c4O[C@H]2[C@@H](O)C=C[C@H]3[C@H]1C5` [morphine], for which the “effect on ASIC channels” value in series [12] was “negative modulators”.

Regarding DAMGO, the “effect on ASIC channels” value in series [12] is “negative modulators”.

For orientation: IC50 means the midpoint of a concentration-inhibition curve. In the case of `N=C(N)NC(=O)c1nc(Cl)c(N)nc1N` [Ami, amiloride], in [10], the “nH of inhibition in the presence of Taf” value turned out to be 1.06 ± 0.37; the “residual integral current in the presence of Taf, % of control” value stood at 129 ± 9%; the τdes is 732 ± 46 ms. In series [10] (half-maximal inhibitory concentration (IC50)), this compound returned an IC50 of 66.9 ± 5.2 µM. The IC50 in series [10] (half-maximal inhibitory concentration (IC50) in the presence of Taf) came to 61.5 ± 21.2 µM. In addition, in [10] (pH 7.4), the nH of inhibition stood at 0.87 ± 0.05 and the “residual integral current (lower asymptote), % of control” value is given as 36 ± 2%. Moreover, the “action on ASIC channels” value in series [13] is “capable of blocking ASIC channels and acting as an ASIC3-positive modulator”. Besides, in [14], the chronic morphine tolerance result was “reduce chronic morphine tolerance”.
